# According to patent US20030225049A1, “Method of treatment for increasing the number of NMDA receptors in a mammalian brain” (UNIVERSITE PARIS VI, priority 1998, published 2003):
# Assays:
# Assay type in all cases: in vivo
# NMDA receptors = test: Effect of DHEAS treatment on [3H]-MK801-labeled NMDA receptor sites in rat brain (quantitative autoradiography); details: male Wistar rats, 30 mg/kg i.p. twice daily for 5 days
# Description: 1.1 Labeling the NMDA Receptors with the Ligand [^3H]-MK801
# The NMDA receptors in the rat brain were labeled by means of the quantitative autoradiography technique, thereby making it possible to visualize and quantify the number of receptors in different regions of the brain.
# The radioactive ligand which makes it possible to specifically recognize the sites of the NMDA receptors is tritium-labeled dizocilpine (MK801), i.e. [^3H]-MK801 (Kemp et al. TINS (1987) 294-298).
# Male rats (Wistar) weighing between 200 and 220 g were decapitated. Their brains were rapidly removed and placed in liquid isopentane at a temperature of −40° C. The brains were then stored at −80° C. until used.
# Brain sections having a thickness of […] were obtained using a Frigocut 2800® cryostat, which is marketed by Reichert Jung.
# The brain sections were preincubated in a 50 mM Tris-acetate, pH 7.4, buffer at 4° C. for 30 minutes. They were then dried rapidly at room temperature.
# The sections were then incubated with the radioligand [^3H]-MK801, sold by New England Nuclear (Boston, Mass., USA) and having a specific activity of 24 Ci/mmol, at a concentration of 5 nM in the abovementioned buffer at 4° C. for a period of 4 hours.
# Control sections were incubated with MK801, which was present at a concentration of 10^−5 M and which was not labeled with tritium, in order to determine non-specific binding.
# All the sections were then rinsed for 5 seconds and then for 90 minutes in the same cold buffer.
# The sections were dried at room temperature and then exposed on tritium-hyperfilm films (Amersham) at 4° C. in the dark for 4 weeks in autoradiography cassettes.
# The films were developed for 2 minutes in a Kodak D19 developer and then fixed in Kodak Rapid fixer and finally rinsed for an hour in running water.
# The autoradiographic labeling was quantified by densitometry using the RAG-200 software sold by BIOCOM (Les Ulis, France), and the binding was measured by relative optical density.
# 30 mg of DHEAS were administered/kg, intraperitoneally and twice daily, to non-castrated male Wistar rats for 5 days. The rats were sacrificed on the 5th day, 30 minutes after the last injection of DHEAS.
# The apparent [^3H]-MK801-binding sites are measured by optical density OD for the total specific binding of [^3H]-MK801 in the cortex and different regions of the hippocampus: CA1; CA3; lateral blade of the dentate gyrus, DG1b, and the median blade of the dentate gyrus, DGmb.
# [1] = system: NR1 subunit of the NMDA receptor; test: Immunohistochemistry of NR1 subunits of NMDA receptors in rat brain after DHEAS treatment; details: after 5, 20 and 30 days of treatment, 30 mg/kg i.p. twice daily
# Description: (§1) Male Wistar rats weighing 200-220 g (IFFA CREDO, Paris) were housed at 21° C. with a standard 12 h light/12 h dark cycle and with food and water being freely available. The animals received intraperitoneal (i.p.) injections of either the vehicle dimethyl sulfoxide (DMSO; 0.2 ml/250 g body weight(b.w.) or dehydroepiandrosterone sulfate (DHEAS; 30 mg/kg b.w. dissolved in DMSO (0.2 ml/250 g b.w)) twice daily, at 8 a.m. and 6 p.m., for a period of either 5, 20 or 30 days. The last injection was given at 8 a.m. of the 5th, 20th or 30th day. All the animals were killed 2 hours after the last injection. Six groups of animals (ten animals per group) were used. Three control groups received DMSO alone for a period of 5, 20 or 30 days respectively, and, in a similar manner, three groups received DHEAS treatment for a period of 5, 20 or 30 days respectively.
# (§2) The rats were killed by decapitation and the brains were rapidly removed from the skull, quickly frozen in liquid isopentane at −40° C., and kept at −80° C. until sectioned. The frozen brains were cut into 20 um thick sections in a cryostat (Frigocut 2800, Reichert Jung). […]
# (§3) The increase can be quantified by the SCION program developed at the National Institutes of Health (USA). […]
# [2] = system: NR2 subunits of NMDA receptors (NMDA R2 A/B); test: Immunohistochemistry of NR2 subunits of NMDA receptors in rat brain after DHEAS treatment; details: after 5, 20 and 30 days of treatment, 30 mg/kg i.p. twice daily
# Description: as §1, §2, §3
substance,measurement,setting,value
dehydroepiandrosterone sulfate [DHEAS],"number of [3H]-MK801 sites, OD",NMDA receptors; CA1,54.01 ± 4.05
same,"number of [3H]-MK801 sites, OD",NMDA receptors; CA3,33.37 ± 4.94
same,"number of [3H]-MK801 sites, OD",NMDA receptors; Cortex,24.88 ± 2.73
same,"number of [3H]-MK801 sites, OD","NMDA receptors; DG1b (dentate gyrus, lateral blade)",42.15 ± 4.31
same,"number of [3H]-MK801 sites, OD","NMDA receptors; DGmb (dentate gyrus, medial blade)",43.13 ± 3.53
same,number of NR1 subunits (in words),[1],clear increase
same,NR2 subunits (in words),[2],slight increase
